Common to all, as to type: cell-based
Experiment [1] deals with NCI-H358 cells (KRAS G12C mutation). Kind of experiment: Proliferation inhibition measured by CTG (CellTiter Glo), NCI-H358. As to conditions: Homo sapiens, 120 hours incubation. An excerpt:
(§1) NCI-H358 is a human non-small cell lung cancer cell line with KRAS G12C mutation; PANC-1 and AsPC-1 are pancreatic cancer cell lines with KRAS G12D mutation; AGS is a gastric cancer cell line with KRAS G12D mutation; A427 is a lung cancer cell line with KRAS G12D mutation; THP-1 is a leukemia cell line with NRAS G12D mutation; Hs 578T is a breast cancer cell line with HRAS G12D mutation; SW480 is a colon cancer cell lines with KRAS G12V mutation; A375 is a wild type malignant melanoma cell line. The proliferation inhibitory effect of the compounds on various mutations was evaluated by determining the proliferation inhibitory activity of the compounds on these cell lines.
(§2) The assay was conducted on either 384-well plates or 96-well plates. The procedures are as follows:
(§3) The cell suspensions were added to 384- or 96-well plates (384-well plate: 40 μL; 96-well plate: […]) except for peripheral wells. The plates were incubated in a carbon dioxide incubator overnight. Prepared compounds (10 concentration gradients by serial 3-fold dilution) were added to the wells. The cell plates were incubated in a carbon dioxide incubator for 120 hours. CellTiter Glo reagent (384 well plate: 25 μL; 96 well plate: 100 μL) was added to the 384- or 96-well plates. The plates were shaken for 10 minutes away from light, and incubated for 10 minutes. The plates were read by EnVision system. Inhibition curves were plotted using XLFit and IC50 values were calculated. “IC50>10 μM” is denoted by “*”, “10 μM≥IC50>1 μM” is denoted by “**”, “1 μM≥IC50>100 nM” is denoted by “***”, and “IC50≤100 nM” is denoted by “****”.
In general terms: ATP-based viability assays read luminescence as a measure of living cells.

Experiment [2] deals with AsPC-1 pancreatic cancer cell line (KRAS G12D mutation). Kind of experiment: Proliferation inhibition measured by CTG (CellTiter Glo), AsPC-1. As to conditions: Homo sapiens, ASPC1; Table 1; CTG, 120 hours incubation; class symbol.
Excerpt: as §1, §2, §3

The test system of experiment [3] is AGS gastric cancer cell line (KRAS G12D mutation). The experiment in a line: Proliferation inhibition measured by CTG (CellTiter Glo), AGS. As to conditions: CTG, 120 hours incubation.
Excerpt: as §1, §2, §3

The test system of experiment [4] is Hs 578T breast cancer cell line (HRAS G12D mutation). Kind of experiment: Proliferation inhibition measured by CTG (CellTiter Glo), Hs 578T. The settings on record: Homo sapiens, Table 1, CTG, 120 hours incubation, class symbol.
Excerpt: as §1, §2, §3

Experiment [5] has as its system THP-1 leukemia cell line (NRAS G12D mutation). Kind of experiment: Proliferation inhibition measured by CTG (CellTiter Glo), THP-1. As to conditions: Homo sapiens, Table 1, CTG, 120 hours incubation, class symbol.
Excerpt: as §1, §2, §3

Experiment [6] deals with A375 wild type malignant melanoma cell line. The experiment in a line: Proliferation inhibition measured by CTG (CellTiter Glo), A375. The settings on record: Homo sapiens, A-375, CTG, 120 hours incubation.
Excerpt: as §1, §2, §3

The subject of experiment [7] is A427 lung cancer cell line (KRAS G12D mutation). Kind of experiment: Proliferation inhibition measured by CTG (CellTiter Glo), A427. As to conditions: Homo sapiens, A-427; Table 1; CTG, 120 hours incubation; class symbol.
Excerpt: as §1, §2, §3

[8] abbreviates: Table 1, CTG, class symbol, read-out: IC50 (H358).
[9] abbreviates: Table 1, class symbol, read-out: IC50 (AGS).
Setting [10] is: Table 1, class symbol, read-out: IC50 (A375).

Read-outs that look alike come from different tables or passages of the source.

For orientation: IC50 means the concentration needed to halve the response being measured.

In the case of `CN1CCO[C@@H](COc2nc3c(c(N4CCn5cncc5C4)n2)CCN(c2cccc4cccc(Cl)c24)C3)C1` [Compound 32], the IC50 in experiment [1] (setting [8]) fell in the range of 100 to 1000 nM; in experiment [2] it was 1000 to 10000 nM; in experiment [3] (setting [9]) it was 1000 to 10000 nM; in experiment [4], 1000 to 10000 nM; in experiment [5], 1000 to 10000 nM; in experiment [6] (setting [10]), 1000 to 10000 nM.

As to `CN1CCC(Oc2nc3c(c(N4CCn5cncc5C4)n2)CCN(c2cccc4cccc(Cl)c24)C3)CC1` [Compound 20], the IC50 in experiment [1] (setting [8]) was in the range of 100 to 1000 nM; in experiment [2], 1000 to 10000 nM; in experiment [3] (setting [9]) it was 100 to 1000 nM; in experiment [4], 1000 to 10000 nM; in experiment [5], 100 to 1000 nM; in experiment [6] (setting [10]) it was 1000 to 10000 nM.

`CN1CCC[C@H]1COc1nc2c(c(N3CCn4cnc(-c5ccccc5)c4C3)n1)CCN(c1cccc3cccc(Cl)c13)C2` [Compound 30]: the IC50 in experiment [1] (setting [8]) was in the range of 100 to 1000 nM; in experiment [2], 100 to 1000 nM; in experiment [3] (setting [9]), 100 to 1000 nM; in experiment [4], 1000 to 10000 nM; in experiment [5], 100 to 1000 nM; in experiment [6] (setting [10]), 100 to 1000 nM.

Regarding `Clc1cccc2cccc(N3CCc4c(nc(OCC56CCCN5CCC6)nc4N4CCn5cncc5C4)C3)c12` [Compound 24], the IC50 is 100 to 1000 nM in experiment [1] (setting [8]); 1000 to 10000 nM in experiment [2]; 1000 to 10000 nM in experiment [3] (setting [9]); over 10000 nM in experiment [4]; 100 to 1000 nM in experiment [5]; 100 to 1000 nM in experiment [6] (setting [10]).

As to `CN1CCC[C@@H]1COc1nc2c(c(N3CCn4cncc4C3)n1)CO[C@H](c1cccc3cccc(Cl)c13)C2` [Compound 4], the IC50 in experiment [1] (setting [8]) lay in the range of 1000 to 10000 nM; in experiment [2], 1000 to 10000 nM; in experiment [7], 100 to 1000 nM; in experiment [6] (setting [10]), 100 to 1000 nM.

In the case of `CC1Cn2cncc2CN1c1nc(OC[C@@H]2CCCN2C)nc2c1CCN(c1cccc3cccc(Cl)c13)C2` (stereo partly drawn) [Compound 22], the IC50 was at most 100 nM in experiment [1] (setting [8]); 73 nM in experiment [1] (Table 2, CTG, read-out: IC50 H358 (G12C)); at most 100 nM in experiment [2]; at most 100 nM in experiment [3] (setting [9]); 54 nM in experiment [3] (Table 2, read-out: IC50 AGS (G12D)); 100 to 1000 nM in experiment [4]. Also, the IC50 in experiment [5] is at most 100 nM; in experiment [6] (setting [10]), at most 100 nM; in experiment [6] (Table 2, read-out: IC50 A375 (wide type)), 96 nM.

As to `CN1CCC[C@@H]1COc1nc2c(c(N3CCn4cncc4C3)n1)CCN(c1cccc3cccc(Cl)c13)C2` [Compound 18], the IC50 is at most 100 nM in experiment [1] (setting [8]); 100 to 1000 nM in experiment [2]; at most 100 nM in experiment [3] (setting [9]); 100 to 1000 nM in experiment [4]; 100 to 1000 nM in experiment [5]; 100 to 1000 nM in experiment [6] (setting [10]).

For `CN1CCO[C@H](COc2nc3c(c(N4CCn5cncc5C4)n2)CCN(c2cccc4cccc(Cl)c24)C3)C1` [Compound 27], the IC50 lay within 100 to 1000 nM in experiment [1] (setting [8]); 100 to 1000 nM in experiment [2]; 100 to 1000 nM in experiment [3] (setting [9]); 1000 to 10000 nM in experiment [4]; 100 to 1000 nM in experiment [5]; 1000 to 10000 nM in experiment [6] (setting [10]).

For `CN1CCC[C@H]1COc1nc(N2CCn3cncc3C2)c2ccc(-c3cccc4cccc(Cl)c34)cc2n1` [Compound 1], the IC50 in experiment [1] (setting [8]), in experiment [2], in experiment [7] and in experiment [6] (setting [10]) was 100 to 1000 nM in each case.

In the case of `Clc1cccc2cccc(N3CCc4c(nc(OCCN5CCCCC5)nc4N4CCn5cncc5C4)C3)c12` [Compound 31], the IC50 in experiment [1] (setting [8]) was 100 to 1000 nM; in experiment [2] it was 100 to 1000 nM; in experiment [3] (setting [9]), 100 to 1000 nM; in experiment [4] it was 1000 to 10000 nM; in experiment [5], 100 to 1000 nM; in experiment [6] (setting [10]) it was 1000 to 10000 nM.

Turning to `CN1CC[C@@H](COc2nc3c(c(N4CCn5cncc5C4)n2)CCN(c2cccc4cccc(Cl)c24)C3)C1` [Compound 28], the IC50 in experiment [1] (setting [8]) was in the range of 100 to 1000 nM; in experiment [2], 100 to 1000 nM; in experiment [3] (setting [9]), 100 to 1000 nM; in experiment [4], 1000 to 10000 nM; in experiment [5] it was 100 to 1000 nM; in experiment [6] (setting [10]), 100 to 1000 nM.

Consider `CN1CCC[C@H]1COc1nc2c(c(N3CCn4nncc4C3)n1)CCN(c1cccc3cccc(Cl)c13)C2` [Compound 10], for which the IC50 in experiment [1] (setting [8]), in experiment [2], in experiment [7] and in experiment [6] (setting [10]) was 100 to 1000 nM in each case.

These data come from US20230391785A1, “NITROGEN-CONTAINING HETEROCYCLIC COMPOUND, METHOD FOR PREPARING SAME AND USE OF SAME” (280 Bio, Inc., priority 2021, published 2023).
